How the values were obtained:
Assay in all cases: competitive isoTOP-ABPP
Assay type in all cases: binding
[1] = target: T1, CDK2 Cyclin-dependent kinase 2 (Homo sapiens, UniProt P24941); details: for R value (DMSO/fragment) for probe 1 labeling: P24941_K33; for isoTOP-ABPP ratio (R) at liganded lysine P24941_K33: sol, 231
T1 construct: isoTOP-ABPP experiments performed in cell lysates (in vitro); endogenous in cells; host or cells: soluble proteome of human cancer cell lines (MDA-MB-231; Ramos and Jurkat also prepared)
How it was run: (§1)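 Fragments at 50 μM (activated esters) or 100 μM (guanidinylating agents) were incubated with 0.5 ml lysate before probe labeling. After 0.1 mM STP-alkyne for 1 h, samples were clicked to isotopically distinct TEV tags, and R taken as DMSO-over-compound MS1 peak-area ratio.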

[2] = target: T2, SPAST Spastin (Homo sapiens, UniProt Q9UBP0); details: for R value (DMSO/fragment) for probe 1 labeling: Q9UBP0_K180; for isoTOP-ABPP ratio (R) at liganded lysine Q9UBP0_K180: sol, 231
T2 construct: endogenous in cells; host or cells: MDA-MB-231 lysate
T2 sequence (Q9UBP0 1-616): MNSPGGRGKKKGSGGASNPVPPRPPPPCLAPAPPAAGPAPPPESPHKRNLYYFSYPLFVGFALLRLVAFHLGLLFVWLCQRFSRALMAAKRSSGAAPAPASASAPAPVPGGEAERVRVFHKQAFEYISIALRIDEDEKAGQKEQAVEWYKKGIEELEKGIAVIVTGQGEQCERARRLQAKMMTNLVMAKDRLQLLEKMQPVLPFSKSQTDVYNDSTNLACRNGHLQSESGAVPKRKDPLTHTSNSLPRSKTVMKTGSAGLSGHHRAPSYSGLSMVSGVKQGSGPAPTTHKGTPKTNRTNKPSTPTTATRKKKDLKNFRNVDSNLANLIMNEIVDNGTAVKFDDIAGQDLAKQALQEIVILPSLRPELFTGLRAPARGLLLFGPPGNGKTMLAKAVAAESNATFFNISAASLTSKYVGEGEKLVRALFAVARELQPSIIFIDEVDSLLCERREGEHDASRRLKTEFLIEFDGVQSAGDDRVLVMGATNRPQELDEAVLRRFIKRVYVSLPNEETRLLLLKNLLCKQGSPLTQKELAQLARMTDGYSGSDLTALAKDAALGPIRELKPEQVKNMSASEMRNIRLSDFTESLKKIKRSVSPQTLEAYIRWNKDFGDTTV
How it was run: as §1

[3] = target: T3, LDHB L-lactate dehydrogenase B chain (Homo sapiens, UniProt P07195); details: for R value (DMSO/fragment) for probe 1 labeling / isoTOP-ABPP ratio (R) at liganded lysine P07195_K82 / isoTOP-ABPP ratio (R) at liganded lysine P07195_K244: 50 uM, in vitro; for R value (DMSO/fragment) for probe 1 labeling: 231 sol; for isoTOP-ABPP ratio (R) at liganded lysine P07195_K82 / isoTOP-ABPP ratio (R) at liganded lysine P07195_K244: sol, 231
T3 construct: isoTOP-ABPP experiments performed in cell lysates (in vitro); endogenous in cells; host or cells: MDA-MB-231 soluble lysate
How it was run: as §1

[4] = target: T4, ATP6V1F V-type proton ATPase subunit F (Homo sapiens, UniProt Q16864); details: for R value (DMSO/fragment) for probe 1 labeling: Q16864_K6; for isoTOP-ABPP ratio (R) at liganded lysine Q16864_K6: sol, 231
T4 construct: isoTOP-ABPP experiments performed in cell lysates (in vitro); endogenous in cells; host or cells: soluble proteome of human cancer cell lines (MDA-MB-231; Ramos and Jurkat also prepared)
How it was run: as §1

[5] = target: T5, ARL6IP1 ADP-ribosylation factor-like protein 6-interacting (Homo sapiens, UniProt Q15041); details: for R value (DMSO/fragment) for probe 1 labeling: Q15041_K188; for isoTOP-ABPP ratio (R) at liganded lysine Q15041_K188: sol, 231
T5 construct: isoTOP-ABPP experiments performed in cell lysates (in vitro); endogenous in cells; host or cells: soluble proteome of human cancer cell lines (MDA-MB-231; Ramos and Jurkat also prepared)
How it was run: as §1

[6] = target: T6, AKR1C3 Aldo-keto reductase family 1 member C3 (Homo sapiens, UniProt P42330); details: for isoTOP-ABPP ratio (R) at liganded lysine P42330_K270: sol, 231; for isoTOP-ABPP ratio, lysine P42330_K270: possible other lysine P52895_K270, P17516_K270, Q04828_K270
T6 construct: isoTOP-ABPP experiments performed in cell lysates (in vitro); endogenous in cells; host or cells: soluble proteome of human cancer cell lines (MDA-MB-231; Ramos and Jurkat also prepared)
T6 sequence (P42330 1-323): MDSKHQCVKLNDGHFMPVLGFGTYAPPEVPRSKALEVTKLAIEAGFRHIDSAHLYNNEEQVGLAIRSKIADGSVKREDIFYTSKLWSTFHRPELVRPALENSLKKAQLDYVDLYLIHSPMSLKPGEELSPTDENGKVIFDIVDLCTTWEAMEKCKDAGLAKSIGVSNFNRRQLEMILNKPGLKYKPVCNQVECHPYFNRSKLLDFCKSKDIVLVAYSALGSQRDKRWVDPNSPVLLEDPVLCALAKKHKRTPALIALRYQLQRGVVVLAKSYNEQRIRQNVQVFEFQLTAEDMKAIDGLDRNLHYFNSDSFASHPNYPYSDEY
How it was run: as §1

T3 sequence (P07195 whole entry, the tested form may be a part): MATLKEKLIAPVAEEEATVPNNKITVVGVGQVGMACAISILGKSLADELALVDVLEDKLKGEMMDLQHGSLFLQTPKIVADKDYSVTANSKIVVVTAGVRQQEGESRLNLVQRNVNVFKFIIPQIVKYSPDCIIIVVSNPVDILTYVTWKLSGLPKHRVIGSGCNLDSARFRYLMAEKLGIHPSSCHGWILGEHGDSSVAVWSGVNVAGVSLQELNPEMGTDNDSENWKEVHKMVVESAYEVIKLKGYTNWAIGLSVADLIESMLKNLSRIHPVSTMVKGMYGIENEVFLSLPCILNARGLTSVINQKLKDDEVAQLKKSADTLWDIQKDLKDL
T5 sequence (Q15041 whole entry, the tested form may be a part): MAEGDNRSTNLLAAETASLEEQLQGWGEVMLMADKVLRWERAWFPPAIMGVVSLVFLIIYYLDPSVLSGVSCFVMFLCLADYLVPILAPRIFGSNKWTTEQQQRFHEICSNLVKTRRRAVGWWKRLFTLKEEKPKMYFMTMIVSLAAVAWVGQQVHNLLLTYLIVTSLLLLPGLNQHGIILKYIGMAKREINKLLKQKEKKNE
T4 sequence (Q16864 whole entry, the tested form may be a part): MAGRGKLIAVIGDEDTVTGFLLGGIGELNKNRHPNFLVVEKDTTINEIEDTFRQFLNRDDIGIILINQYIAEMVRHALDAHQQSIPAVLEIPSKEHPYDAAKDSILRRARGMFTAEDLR

O=C(Oc1c(F)c(F)c(F)c(F)c1F)C(c1ccccc1)c1ccccc1 [fragment 20, Pentafluorophenyl 2,2-diphenylacetate]
R value (DMSO/fragment) for probe 1 labeling ([1]; 50 uM, 231 sol, in vitro): 0.9 | R value (DMSO/fragment) for probe 1 labeling ([2]; 50 uM, 231 sol, in vitro): 1.2 | R value (DMSO/fragment) for probe 1 labeling ([3]; P07195_K82): 1.2 | R value (DMSO/fragment) for probe 1 labeling ([3]; P07195_K244): 1.0 | R value (DMSO/fragment) for probe 1 labeling ([4]; 50 uM, 231 sol, in vitro): 1.1 | R value (DMSO/fragment) for probe 1 labeling ([5]; 50 uM, 231 sol, in vitro): 1.8 | R value (DMSO/fragment) for probe 1 labeling ([6]; P42330_K270, 50 uM, 231 sol, in vitro): 1.4

O=C(Oc1c(F)c(F)c(F)c(F)c1F)c1cc(C(F)(F)F)cc(C(F)(F)F)c1 [fragment 21, Pentafluorophenyl 3,5-bis(trifluoromethyl)benzoate]
R value (DMSO/fragment) for probe 1 labeling ([1]; 50 uM, 231 sol, in vitro): 1.0 | R value (DMSO/fragment) for probe 1 labeling ([2]; 50 uM, 231 sol, in vitro): 1.8 | R value (DMSO/fragment) for probe 1 labeling ([3]; P07195_K244): 1.0 | R value (DMSO/fragment) for probe 1 labeling ([4]; 50 uM, 231 sol, in vitro): 1.1 | R value (DMSO/fragment) for probe 1 labeling ([5]; 50 uM, 231 sol, in vitro): 3.9

COc1cc(CCC(=O)Oc2ccc([N+](=O)[O-])cc2[N+](=O)[O-])cc(OC)c1OC [fragment 33, 2,4-Dinitrophenyl 3-(3,4,5-trimethoxyphenyl)propanoate]
isoTOP-ABPP reactivity ratio at lysine P24941_K33 ([1]; 50 uM, 231 sol, in vitro): 0.7 | isoTOP-ABPP reactivity ratio at lysine Q9UBP0_K180 ([2]; 50 uM, 231 sol, in vitro): 0.7 | isoTOP-ABPP reactivity ratio at lysine Q16864_K6 ([4]; 50 uM, 231 sol, in vitro): 0.8 | isoTOP-ABPP reactivity ratio at lysine Q15041_K188 ([5]; 50 uM, 231 sol, in vitro): 1.3 | isoTOP-ABPP reactivity ratio at lysine P42330_K270 ([6]; 50 uM, 231 sol, in vitro): 1.0

O=C(Oc1ccc([N+](=O)[O-])cc1[N+](=O)[O-])c1ccc(-c2ccccc2)cc1 [fragment 37, 2,4-Dinitrophenyl [1,1′-biphenyl]-4-carboxylate]
isoTOP-ABPP ratio (R) at liganded lysine P24941_K33 ([1]; 50 uM, in vitro): 0.9 | isoTOP-ABPP ratio (R) at liganded lysine Q9UBP0_K180 ([2]; 50 uM, in vitro): 1.1 | isoTOP-ABPP ratio (R) at liganded lysine P07195_K82 [3]: 0.8 | isoTOP-ABPP ratio (R) at liganded lysine P07195_K244 [3]: 0.8 | isoTOP-ABPP ratio (R) at liganded lysine Q16864_K6 ([4]; 50 uM, in vitro): 1.0 | isoTOP-ABPP ratio (R) at liganded lysine Q15041_K188 ([5]; 50 uM, in vitro): 1.8 | isoTOP-ABPP ratio (R) at liganded lysine P42330_K270 ([6]; 50 uM, in vitro): 0.8

O=C(Oc1ccc([N+](=O)[O-])cc1[N+](=O)[O-])c1ccc(Oc2ccccc2)cc1 [fragment 39, 2,4-Dinitrophenyl 4-phenoxybenzoate]
isoTOP-ABPP ratio (R) at liganded lysine P24941_K33 ([1]; 50 uM, in vitro): 1.0 | isoTOP-ABPP ratio (R) at liganded lysine Q9UBP0_K180 ([2]; 50 uM, in vitro): 1.4 | isoTOP-ABPP ratio (R) at liganded lysine P07195_K82 [3]: 20.0 | isoTOP-ABPP ratio (R) at liganded lysine P07195_K244 [3]: 1.0 | isoTOP-ABPP ratio (R) at liganded lysine Q16864_K6 ([4]; 50 uM, in vitro): 0.9 | isoTOP-ABPP ratio (R) at liganded lysine Q15041_K188 ([5]; 50 uM, in vitro): 1.7 | isoTOP-ABPP ratio (R) at liganded lysine P42330_K270 ([6]; 50 uM, in vitro): 0.8

CC(C)(C)OC(=O)NCCCC(=O)Oc1ccc([N+](=O)[O-])cc1[N+](=O)[O-] [fragment 41, 2,4-Dinitrophenyl 4-((tert-butoxycarbonyl)amino)butanoate]
isoTOP-ABPP ratio (R) at liganded lysine P24941_K33 ([1]; 50 uM, in vitro): 1.0 | isoTOP-ABPP ratio (R) at liganded lysine Q9UBP0_K180 ([2]; 50 uM, in vitro): 1.4 | isoTOP-ABPP ratio (R) at liganded lysine P07195_K244 [3]: 20.0 | isoTOP-ABPP ratio (R) at liganded lysine Q16864_K6 ([4]; 50 uM, in vitro): 1.0 | isoTOP-ABPP ratio (R) at liganded lysine Q15041_K188 ([5]; 50 uM, in vitro): 1.3 | isoTOP-ABPP ratio (R) at liganded lysine P42330_K270 ([6]; 50 uM, in vitro): 0.7

O=C(Oc1ccc([N+](=O)[O-])cc1[N+](=O)[O-])C(c1ccccc1)(c1ccccc1)c1ccccc1 [fragment 42, 2,4-Dinitrophenyl 2,2,2-triphenylacetate]
isoTOP-ABPP ratio (R) at liganded lysine P24941_K33 ([1]; 50 uM, in vitro): 0.9 | isoTOP-ABPP ratio (R) at liganded lysine Q9UBP0_K180 ([2]; 50 uM, in vitro): 1.0 | isoTOP-ABPP ratio (R) at liganded lysine P07195_K82 [3]: 20.0 | isoTOP-ABPP ratio (R) at liganded lysine Q16864_K6 ([4]; 50 uM, in vitro): 1.0 | isoTOP-ABPP ratio (R) at liganded lysine Q15041_K188 ([5]; 50 uM, in vitro): 1.1 | isoTOP-ABPP ratio (R) at liganded lysine P42330_K270 ([6]; 50 uM, in vitro): 0.9

N#Cc1ccc(C(=O)Oc2ccc([N+](=O)[O-])cc2[N+](=O)[O-])cc1 [fragment 44, 2,4-Dinitrophenyl 4-cyanobenzoate]
isoTOP-ABPP ratio, lysine P24941_K33 ([1]; 50 uM_231_sol_in vitro): 1.1 | isoTOP-ABPP ratio, lysine P07195_K82 ([3]; 50 uM_231_sol_in vitro): 1.0 | isoTOP-ABPP ratio, lysine P07195_K244 ([3]; 50 uM_231_sol_in vitro): 1.1 | isoTOP-ABPP ratio, lysine Q16864_K6 ([4]; 50 uM_231_sol_in vitro): 1.2 | isoTOP-ABPP ratio, lysine Q15041_K188 ([5]; 50 uM_231_sol_in vitro): 1.1 | isoTOP-ABPP ratio, lysine P42330_K270 ([6]; 50 uM_231_sol_in vitro): 0.5

O=C(CCc1ccc2c(c1)OCO2)Oc1ccc([N+](=O)[O-])cc1[N+](=O)[O-] [fragment 45, 2,4-Dinitrophenyl 3-(benzo[d][1,3]dioxol-5-yl)propanoate]
isoTOP-ABPP ratio, lysine P24941_K33 ([1]; 50 uM_231_sol_in vitro): 4.6 | isoTOP-ABPP ratio, lysine Q9UBP0_K180 ([2]; 50 uM_231_sol_in vitro): 1.7 | isoTOP-ABPP ratio, lysine Q16864_K6 ([4]; 50 uM_231_sol_in vitro): 1.0 | isoTOP-ABPP ratio, lysine Q15041_K188 ([5]; 50 uM_231_sol_in vitro): 2.2 | isoTOP-ABPP ratio, lysine P42330_K270 ([6]; 50 uM_231_sol_in vitro): 0.8

O=C(ON1C(=O)CCC1=O)c1cc(C(F)(F)F)cc(C(F)(F)F)c1 [fragment 46, 3,5-Bis(trifluoromethyl)benzoic acid NHS ester]
isoTOP-ABPP ratio, lysine P24941_K33 ([1]; 50 uM_231_sol_in vitro): 0.9 | isoTOP-ABPP ratio, lysine Q9UBP0_K180 ([2]; 50 uM_231_sol_in vitro): 4.4 | isoTOP-ABPP ratio, lysine P07195_K82 ([3]; 50 uM_231_sol_in vitro): 0.7 | isoTOP-ABPP ratio, lysine P07195_K244 ([3]; 50 uM_231_sol_in vitro): 0.8 | isoTOP-ABPP ratio, lysine Q16864_K6 ([4]; 50 uM_231_sol_in vitro): 20.0 | isoTOP-ABPP ratio, lysine Q15041_K188 ([5]; 50 uM_231_sol_in vitro): 1.2

CC(C)(C)OC(=O)N=C(NC(=O)OC(C)(C)C)n1cccn1 [fragment 50, reference compound]
isoTOP-ABPP ratio, lysine P24941_K33 ([1]; 100 uM_231_sol_in vitro): 2.3 | isoTOP-ABPP ratio, lysine Q9UBP0_K180 ([2]; 100 uM_231_sol_in vitro): 2.0 | isoTOP-ABPP ratio, lysine P07195_K82 ([3]; 100 uM_231_sol_in vitro): 0.9 | isoTOP-ABPP ratio, lysine P07195_K244 ([3]; 100 uM_231_sol_in vitro): 1.1 | isoTOP-ABPP ratio, lysine Q16864_K6 ([4]; 100 uM_231_sol_in vitro): 1.4 | isoTOP-ABPP ratio, lysine Q15041_K188 ([5]; 100 uM_231_sol_in vitro): 3.4 | isoTOP-ABPP ratio, lysine P42330_K270 ([6]; 100 uM_231_sol_in vitro): 0.7

— patent US20210255193A1, “LYSINE REACTIVE PROBES AND USES THEREOF” (The Scripps Research Institute, priority 2017, published 2021)
